Results on 21 molecules are retold here after paper PMC11785640, “Structure-based inhibition of acetylcholinesterase and butyrylcholinesterase with 2-Aryl-6-carboxamide benzoxazole derivatives: synthesis, enzymatic assay, and in silico studies” (Molecular Diversity, 2024).

Each structure is given as a SMILES string.

The target of experiment [1] is AChE (Electrophorus electricus, UniProt O42275). Description: biochemical. Particulars: for Ki: from Lineweaver-Burk graphs, mean ± SD, triplicate; for Selectivity index (AChE/BChE): ratio AChE/BChE. Format: biochemical. The method, then:
(§1) These analogs were dissolved in DMSO at an initial concentration of 1 mg/mL. Around 1% of DMSO was present in the final reaction mixture. Acetylthiocholine iodide (AChI)/butyrylcholine iodide (BChI) were used as substrates for enzymatic reactions. […] The mixture was incubated at 20 °C for 20 min. Then, 50 µL of 5,5’-dithio-bis 2-nitro-benzoic acid (DTNB, 0.5 mM) and AChI/BChI were added and enzymatic reactions were initiated.
(§2) Lineweaver-Burk graphs were used for the calculation of Ki and the other parameters as described in prior studies. The Ki values were taken out from this graph. All analyses were conducted independently in triplicate, and result data are expressed as mean values ± SD [59].

Experiment [2] addresses BChE (Equus caballus, UniProt P81908). Description: biochemical. Format: biochemical. The settings on record: for Ki: from Lineweaver-Burk graphs, mean ± SD, triplicate. The method, then:
as §1, §2

BChE, sequence (P81908 whole entry): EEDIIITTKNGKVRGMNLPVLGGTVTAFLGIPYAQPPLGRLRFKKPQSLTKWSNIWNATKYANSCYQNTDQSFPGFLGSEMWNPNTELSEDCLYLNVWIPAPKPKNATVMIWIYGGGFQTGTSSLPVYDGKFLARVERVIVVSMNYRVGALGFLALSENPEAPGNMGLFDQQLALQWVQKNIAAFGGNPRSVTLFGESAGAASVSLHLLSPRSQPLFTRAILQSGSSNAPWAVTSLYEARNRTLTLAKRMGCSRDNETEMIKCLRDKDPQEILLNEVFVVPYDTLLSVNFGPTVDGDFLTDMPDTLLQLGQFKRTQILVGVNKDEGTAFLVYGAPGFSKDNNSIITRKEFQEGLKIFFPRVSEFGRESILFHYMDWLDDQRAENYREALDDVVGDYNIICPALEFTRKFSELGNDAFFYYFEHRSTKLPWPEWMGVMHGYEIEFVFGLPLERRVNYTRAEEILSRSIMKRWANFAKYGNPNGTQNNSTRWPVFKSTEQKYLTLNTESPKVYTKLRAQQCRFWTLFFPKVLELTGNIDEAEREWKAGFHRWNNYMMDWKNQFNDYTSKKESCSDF
AChE, sequence (O42275 24-633): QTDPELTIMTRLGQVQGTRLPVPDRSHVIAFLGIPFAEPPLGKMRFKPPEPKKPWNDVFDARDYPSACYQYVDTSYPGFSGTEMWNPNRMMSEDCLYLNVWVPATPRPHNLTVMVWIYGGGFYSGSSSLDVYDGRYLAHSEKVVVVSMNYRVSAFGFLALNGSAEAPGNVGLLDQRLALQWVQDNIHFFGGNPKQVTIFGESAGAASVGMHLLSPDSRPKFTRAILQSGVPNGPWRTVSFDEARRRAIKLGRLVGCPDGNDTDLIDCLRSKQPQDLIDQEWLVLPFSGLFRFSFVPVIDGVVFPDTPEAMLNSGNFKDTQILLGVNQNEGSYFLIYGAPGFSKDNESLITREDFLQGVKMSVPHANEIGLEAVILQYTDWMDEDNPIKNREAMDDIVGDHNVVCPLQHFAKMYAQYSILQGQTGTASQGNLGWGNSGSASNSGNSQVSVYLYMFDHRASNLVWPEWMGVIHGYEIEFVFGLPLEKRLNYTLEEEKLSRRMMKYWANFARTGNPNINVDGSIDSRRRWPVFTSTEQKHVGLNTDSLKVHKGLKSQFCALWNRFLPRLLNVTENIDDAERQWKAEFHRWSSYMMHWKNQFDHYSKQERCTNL

One may read the IC50 as the concentration that gives 50% inhibition. For orientation: Ki means a dissociation constant, usually derived from enzyme kinetics or from competition with a known ligand. A lower Ki goes with higher affinity. As for `O=C(c1ccc2nc(-c3ccccc3)oc2c1)N1CCOCC1` [Compound 12], in experiment [1], it took 29.6 nM to reach half-maximal inhibition (IC50), the Ki was 28.6 ± 3.96 nM and the “Selectivity index (AChE/BChE)” value was found to be 0.88. In addition, in experiment [2], 34.5 nM corresponded to half-maximal inhibition (IC50) and the Ki stood at 32.3 ± 3.25 nM.
Taken in the same sequence, the figures for `CN(C)C(=O)c1ccc2nc(-c3cccs3)oc2c1` [Compound 43, N,Ndimethyl-2-(thiophen-2-yl)benzo[d]oxazole-6-carboxamide] were 29.2 nM, 19.9 ± 0.73 nM, 0.17, 130 nM and 120 ± 25.7 nM.
Taken in the same sequence, the figures for `CN(C)C(=O)c1ccc2nc(-c3ccc[nH]3)oc2c1` [Compound 31, N,N-dimethyl-2-(1 H-pyrrol-2-yl)benzo[d]oxazole-6-carboxamide] were 36.8 nM, 30.7 ± 2.21 nM, 0.73, 47.3 nM and 42 ± 6.32 nM.
Taken in the same sequence, the figures for `O=C(c1ccc2nc(-c3ccc(-c4ccccc4)cc3)oc2c1)N1CCCCC1` [Compound 17, (2-([1,1’-Biphenyl]-4-yl)benzo[d]oxazol-6-yl)(piperidin-1-yl)methanone] were 20.6 nM, 18.4 ± 3.33 nM, 0.37, 58.9 nM and 49.2 ± 11.1 nM.
As to `O=C(c1ccc2nc(-c3ccc[nH]3)oc2c1)N1CCCC1` [Compound 34, (2-(1 H-pyrrol-2-yl)benzo[d]oxazol-6-yl)(pyrrolidin-1-yl)methanone], in experiment [1], the IC50 came to 26.7 nM, the Ki is 15.5 ± 1.96 nM and the “Selectivity index (AChE/BChE)” value was found to be 0.32. In experiment [2], this molecule displayed an IC50 of 53.2 nM and a Ki of 48.2 ± 2.56 nM.
Taken in the same sequence, the figures for `CN(C)C(=O)c1ccc2nc(-c3ccccc3)oc2c1` [Compound 7, N,N -dimethyl-2-phenylbenzo[d]oxazole-6-carboxamide] were 32.9 nM, 23 ± 1.7 nM, 0.45, 65.8 nM and 50.7 ± 6.43 nM.
In the case of `O=C(c1ccc2nc(-c3ccc(-c4ccccc4)cc3)oc2c1)N1CCCC1` [Compound 16, (2-([1,1’-Biphenyl]-4-yl)benzo[d]oxazol-6-yl)(pyrrolidin-1-yl)methanone], in experiment [1], the IC50 was determined as 26.3 nM, the inhibition constant Ki was determined as 26.7 ± 5.13 nM and the “Selectivity index (AChE/BChE)” value came to 0.32. In experiment [2], this molecule yielded an IC50 of 86.2 nM and a Ki of 84 ± 12.4 nM.
As for `CCN(CC)C(=O)c1ccc2nc(-c3cccc4ccccc34)oc2c1` [Compound 20, N,Ndiethyl-2-(naphthalen-1-yl)benzo[d]oxazole-6-carboxamide], in experiment [1], the IC50 turned out to be 53.6 nM, affinity was put at a Ki of 48.5 ± 9.97 nM and the “Selectivity index (AChE/BChE)” value was determined as 0.36. In experiment [2], this molecule registered an IC50 of 174 nM and a Ki of 136 ± 30.7 nM.
Taken in the same sequence, the figures for `CCCN(CCC)C(=O)c1ccc2nc(-c3cccc4ccccc34)oc2c1` [Compound 21, 2-(Naphthalen-1-yl)-N,Ndipropylbenzo[d]oxazole-6-carboxamide] were 67 nM, 71.6 ± 12 nM, 0.50, 188 nM and 145 ± 11.2 nM.
Taken in the same sequence, the figures for `CCCN(CCC)C(=O)c1ccc2nc(-c3ccco3)oc2c1` [Compound 39, 2-(Furan-2-yl)-N,N-dipropylbenzo[d]oxazole-6-carboxamide] were 28 nM, 38.5 ± 8.48 nM, 0.59, 82.2 nM and 65.2 ± 8.33 nM.
As for `CN(C)C(=O)c1ccc2nc(-c3cccc4ccccc34)oc2c1` [Compound 19, N,Ndimethyl-2-(naphthalen-1-yl)benzo[d]oxazole-6-carboxamide], in experiment [1], the half-inhibitory concentration (IC50) is 39.6 nM, the inhibition constant Ki came to 38.8 ± 2.96 nM and the “Selectivity index (AChE/BChE)” value was 0.32. For the same molecule, in experiment [2], the midpoint of inhibition, the IC50, lay at 142 nM and the Ki was 121 ± 15.5 nM.
As for `O=C(c1ccc2nc(-c3cccc4ccccc34)oc2c1)N1CCCC1` [Compound 22], in experiment [1], the IC50 stood at 43 nM, the affinity corresponds to a Ki of 41.9 ± 5.64 nM and the “Selectivity index (AChE/BChE)” value was 0.58. In addition, in experiment [2], the IC50 amounted to 124 nM and the Ki was 72.5 ± 5.66 nM.
Taken in the same sequence, the figures for `CCCN(CCC)C(=O)c1ccc2nc(-c3cccs3)oc2c1` [Compound 45, N,Ndipropyl-2-(thiophen-2-yl)benzo[d]oxazole-6-carboxamide] were 30.1 nM, 21.8 ± 1.45 nM, 0.30, 85.2 nM and 72.5 ± 12.6 nM.
On to `CCN(CC)C(=O)c1ccc2nc(-c3cccs3)oc2c1` [Compound 44, N,N-2-(thiophen-2-yl)benzo[d]oxazole-6-carboxamide], for which, in experiment [1], the IC50 was 27.6 nM, the Ki is 15.7 ± 0.85 nM and the “Selectivity index (AChE/BChE)” value was determined as 0.27. In experiment [2], the 50% inhibitory concentration (IC50) was 75.4 nM and affinity was put at a Ki of 61 ± 11.1 nM.
For `CCN(CC)C(=O)c1ccc2nc(-c3ccccc3)oc2c1` [Compound 8, N,N-diethyl-2-phenylbenzo[d]oxazole-6-carboxamide], in experiment [1], the midpoint of inhibition, the IC50, lay at 34 nM; the Ki is 30.6 ± 3.34 nM; the “Selectivity index (AChE/BChE)” value amounted to 0.40. Moreover, in experiment [2], the IC50 came to 74 nM and affinity was put at a Ki of 77 ± 5.25 nM.
Taken in the same sequence, the figures for `CCN(CC)C(=O)c1ccc2nc(-c3ccc(-c4ccccc4)cc3)oc2c1` [Compound 14] were 30.8 nM, 19.8 ± 3.69 nM, 0.26, 84.6 nM and 75.3 ± 13.8 nM.
Taken in the same sequence, the figures for `O=C(c1ccc2nc(-c3ccco3)oc2c1)N1CCCC1` [Compound 40] were 52.1 nM, 34.9 ± 7.28 nM, 0.36, 101 nM and 95.6 ± 20.2 nM.
With `O=C(c1ccc2nc(-c3cccs3)oc2c1)N1CCCCC1` [Compound 47, Piperidin-1-yl(2-(thiophen-2-yl)benzo[d]oxazol-6-yl)methanone], in experiment [1], 24 nM corresponded to half-maximal inhibition (IC50), the Ki is 22.3 ± 4.11 nM and the “Selectivity index (AChE/BChE)” value stood at 0.48. In experiment [2], this molecule yielded an IC50 of 65.2 nM and a Ki of 46.6 ± 2.1 nM.
`CCN(CC)C(=O)c1ccc2nc(-c3ccncc3)oc2c1` [Compound 26, N,Ndiethyl-2-(pyridin-4-yl)benzo[d]oxazole-6-carboxamide]: in experiment [1], half-maximal inhibition (IC50) required 48.1 nM, the inhibition constant (Ki) stood at 83.1 ± 1.33 nM and the “Selectivity index (AChE/BChE)” value turned out to be 1.53. In experiment [2], this molecule gave an IC50 of 76.2 nM and a Ki of 54.4 ± 4.85 nM.
Taken in the same sequence, the figures for `O=C(c1ccc2nc(-c3cccc4ccccc34)oc2c1)N1CCCCC1` [Compound 23] were 24.6 nM, 20.2 ± 1.47 nM, 0.29, 98.3 nM and 69.4 ± 11.3 nM.
Taken in the same sequence, the figures for `CN(C)C(=O)c1ccc2nc(-c3ccco3)oc2c1` [Compound 37, 2-(Furan-2-yl)-N,N-dimethylbenzo[d]oxazole-6-carboxamide] were 46.4 nM, 45.7 ± 4.3 nM, 0.37, 147 nM and 123 ± 15.3 nM.
